Results on 11 molecules are retold here after ChEMBL document CHEMBL1201862, “PubChem BioAssay data set” (2004).

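Compound exposure: 48 hours, 5 concentrations, 96-well plates. At the GI50, growth is halved.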 Active and inactive are the calls of the source. No stated cut-off is given here; in the data, active = GI50 up to about 1.1 µM and inactive = higher.

Some test systems named below: SF-268; MDA-MB-435; COLO 205; HCT-15; SNB-75; HCT-116; MOLT-4; HCC 2998; SK-MEL-5; T47D; SW-620; SN12C; 786-0; TK-10; HOP-62; SNB-19; NCI-H23; LOX IMVI; HT-29; HOP-92.
What all share (test): DTP human tumour cell line panel, 48 h

A word on the GI50: it is the concentration at which growth is held to half of that of the control.

In the case of `C=CCN(c1cc(OC)c2[nH]c(C(=O)O)c(C)c2c1[N+](=O)[O-])S(C)(=O)=O`, the GI50 with SF-268 is > 100 µM (inactive); in the experiment with MDA-MB-435, > 100 µM (inactive); in the experiment on COLO 205 it was > 100 µM (inactive); with HCT-15, more than 100 µM; in the experiment with SNB-75 it was > 100 µM (inactive); with HCT-116 it was > 100 µM (inactive). Besides, the GI50 is > 100 µM (inactive) in the experiment with MOLT-4; > 100 µM (inactive) with HCC 2998; > 100 µM (inactive) with SK-MEL-5; > 100 µM (inactive) in the experiment with T47D; > 100 µM (inactive) with SW-620; 54.3 µM (inactive) with SN12C. Also, the GI50 with 786-0, in the experiment with TK-10, in the experiment on HOP-62, with SNB-19, in the experiment with NCI-H23 and with LOX IMVI was > 100 µM (inactive) in each case.

`Cc1cc(S(=O)(=O)Nc2nnc3ccccn23)c(S)cc1Cl`: the GI50 with HT-29 was > 100 µM (inactive); with MDA-MB-435, > 100 µM (inactive); in the experiment on COLO 205, > 100 µM (inactive); with HCT-15, more than 100 µM; with HCT-116 it was > 100 µM (inactive); with MOLT-4, 71.6 µM (inactive). Also, the GI50 with HCC 2998, in the experiment with SK-MEL-5, in the experiment on T47D, with SW-620, with SN12C and in the experiment with 786-0 was > 100 µM (inactive) throughout. Further, the GI50 was > 100 µM (inactive) with TK-10; 56.6 µM (inactive) in the experiment on HOP-62; > 100 µM (inactive) in the experiment with SNB-19; > 100 µM (inactive) in the experiment with NCI-H23; > 100 µM (inactive) in the experiment with LOX IMVI.

`O=C1N/C(=N/N=C\c2ccccc2)N/C1=C/c1ccc(Cl)cc1`: the GI50 is 22.2 µM (inactive) with SF-268; 33 µM (inactive) in the experiment on HT-29; 33.3 µM (inactive) in the experiment with MDA-MB-435; 32.2 µM (inactive) in the experiment on COLO 205; 15.3 µM in the experiment on HCT-15; 18.7 µM (inactive) with SNB-75. For the same molecule, the GI50 with HCT-116 is 26.9 µM (inactive); in the experiment on MOLT-4 it was 15.5 µM (inactive); in the experiment with HCC 2998, 15.9 µM (inactive); in the experiment with SK-MEL-5 it was 19.3 µM (inactive); in the experiment with T47D it was 21 µM (inactive); in the experiment on SW-620, 30.6 µM (inactive). Also, the GI50 in the experiment on SN12C was 23.2 µM (inactive); in the experiment on 786-0, 29.8 µM (inactive); in the experiment with TK-10, 42.3 µM (inactive); in the experiment with HOP-62, 17.1 µM (inactive); with SNB-19, 15.6 µM (inactive); in the experiment on NCI-H23, 19 µM (inactive). Besides, in the experiment on LOX IMVI, the GI50 is 26.1 µM (inactive).

As to `CCOC(=O)c1ccc2c(=O)n3c(C(=O)OCC)ccc3c(=O)n12`, the GI50 is > 100 µM (inactive) in the experiment with SF-268; > 100 µM (inactive) with HT-29; > 100 µM (inactive) in the experiment with MDA-MB-435; > 100 µM (inactive) with COLO 205; more than 100 µM in the experiment with HCT-15; 44.5 µM (inactive) with SNB-75. The GI50 in the experiment on HCT-116, with MOLT-4, with HCC 2998, in the experiment on SK-MEL-5, in the experiment with T47D and in the experiment on SW-620 was > 100 µM (inactive) throughout. The GI50 in the experiment with SN12C, in the experiment with 786-0, with TK-10, with HOP-62, in the experiment on SNB-19 and with NCI-H23 was > 100 µM (inactive) throughout. Moreover, the GI50 with LOX IMVI was > 100 µM (inactive).

`CCNC(=O)CCN(C(=O)O)S(=O)(=O)c1ccc(NC(=O)c2ccccc2)cc1`: the GI50 in the experiment with SF-268 was > 100 µM (inactive); in the experiment on HT-29 it was 50.8 µM (inactive); with COLO 205 it was > 100 µM (inactive); in the experiment with HCT-15, more than 100 µM; with SNB-75 it was > 100 µM (inactive); with HCT-116 it was 35.6 µM (inactive). For the same molecule, the GI50 in the experiment with MOLT-4 is > 100 µM (inactive); in the experiment on HCC 2998 it was > 100 µM (inactive); with SK-MEL-5, > 100 µM (inactive); with HOP-92, > 100 µM (inactive); in the experiment with SW-620, 15.5 µM (inactive); in the experiment on SN12C, > 100 µM (inactive). In addition, the GI50 in the experiment with 786-0 was 10.3 µM (inactive); in the experiment on TK-10 it was > 100 µM (inactive); in the experiment on HOP-62 it was > 100 µM (inactive); in the experiment with SNB-19, > 100 µM (inactive); with NCI-H23, > 100 µM (inactive); in the experiment on LOX IMVI it was 22.6 µM (inactive).

`CCOC(=O)C1(C/C=C\CBr)CCCCCCC1=O` (stereo unspecified): the GI50 is > 100 µM (inactive) in the experiment on SF-268; > 100 µM (inactive) in the experiment on HT-29; > 100 µM (inactive) in the experiment with MDA-MB-435; > 100 µM (inactive) in the experiment with COLO 205; more than 100 µM in the experiment with HCT-15; > 100 µM (inactive) in the experiment with SNB-75. For the same molecule, the GI50 in the experiment with HCT-116, in the experiment on MOLT-4, in the experiment with SK-MEL-5, in the experiment on T47D, in the experiment with SW-620 and with SN12C was > 100 µM (inactive) in each case. Besides, the GI50 was > 100 µM (inactive) in the experiment on 786-0; 91 µM (inactive) with TK-10; > 100 µM (inactive) in the experiment with HOP-62; > 100 µM (inactive) in the experiment with SNB-19; > 100 µM (inactive) in the experiment with NCI-H23; > 100 µM (inactive) in the experiment on LOX IMVI.

Take `COc1ccc(-c2cc(O)c3cc4c(cc3n2)OCO4)c(OC)c1OC`: the GI50 was > 100 µM (inactive) in the experiment on SF-268; > 100 µM (inactive) in the experiment on HT-29; 53.1 µM (inactive) with COLO 205; more than 100 µM in the experiment with HCT-15; 27.7 µM (inactive) with SNB-75; > 100 µM (inactive) in the experiment on HCT-116. Besides, the GI50 with MOLT-4 was 62.7 µM (inactive); in the experiment on HCC 2998, > 100 µM (inactive); in the experiment on SK-MEL-5 it was 41.5 µM (inactive); in the experiment with HOP-92, 70.3 µM (inactive); in the experiment with SW-620, 84.9 µM (inactive); with SN12C, > 100 µM (inactive). Also, the GI50 in the experiment with 786-0 is > 100 µM (inactive); with TK-10, > 100 µM (inactive); with HOP-62, 87.1 µM (inactive); in the experiment with SNB-19, > 100 µM (inactive); in the experiment with NCI-H23 it was > 100 µM (inactive); in the experiment with LOX IMVI, > 100 µM (inactive).

Turning to `Cc1c(C(=O)C/C(=N/NC(=O)CC#N)C(N)=O)[n+]([O-])c2ccccc2[n+]1[O-]`, the GI50 was 34.3 µM (inactive) in the experiment on SF-268; 78 µM (inactive) in the experiment with HT-29; 34.6 µM (inactive) in the experiment on COLO 205; 25.9 µM in the experiment with HCT-15; > 100 µM (inactive) in the experiment on SNB-75; 28.1 µM (inactive) in the experiment on HCT-116. The GI50 is 35.6 µM (inactive) in the experiment with MOLT-4; 39.5 µM (inactive) with HCC 2998; 40.6 µM (inactive) with SK-MEL-5; > 100 µM (inactive) in the experiment on HOP-92; 17.7 µM (inactive) with SW-620; 30.2 µM (inactive) with SN12C. In addition, the GI50 in the experiment with 786-0 is > 100 µM (inactive); with TK-10 it was > 100 µM (inactive); in the experiment with HOP-62 it was > 100 µM (inactive); in the experiment on SNB-19, > 100 µM (inactive); in the experiment with NCI-H23 it was 83.6 µM (inactive); in the experiment on LOX IMVI it was 34.3 µM (inactive).

For the molecule `Cc1cc(N(CCC#N)CCC#N)ccc1/C=C/C(=O)Nc1ccccc1Cl`, the GI50 in the experiment on SF-268 is > 100 µM (inactive); in the experiment with HT-29, > 100 µM (inactive); in the experiment with COLO 205, > 100 µM (inactive); with HCT-15, more than 100 µM; in the experiment with SNB-75, > 100 µM (inactive); with HCT-116, > 100 µM (inactive). The GI50 with MOLT-4, in the experiment on HCC 2998, with SK-MEL-5, with HOP-92, in the experiment on SW-620 and with SN12C was > 100 µM (inactive) throughout. The GI50 with 786-0, with TK-10, in the experiment with HOP-62, in the experiment with SNB-19, in the experiment with NCI-H23 and with LOX IMVI was > 100 µM (inactive) throughout.

On to `CC1(C)CC(=O)c2c(nc3c(ccc4ccccc43)c2-c2ccc(NC(=O)CCCCCCCCC(=O)Nc3ccc(-c4c5c(nc6c4ccc4ccccc46)CC(C)(C)CC5=O)cc3)cc2)C1`, for which the GI50 with SF-268, with HT-29, with MDA-MB-435, with COLO 205, with SNB-75 and with HCT-116 was > 100 µM (inactive) in each case. Moreover, the GI50 with MOLT-4, in the experiment on SK-MEL-5, in the experiment with T47D, in the experiment with SW-620, with SN12C and with 786-0 was > 100 µM (inactive) in each case. Moreover, the GI50 with TK-10, in the experiment with HOP-62, with SNB-19 and in the experiment on LOX IMVI was > 100 µM (inactive) throughout.

On to `COc1cc(C2SCC(=O)N2c2cc(Cl)c(Cl)cc2Cl)cc(OC)c1OC` (stereo unspecified), for which the GI50 with SF-268 is 90.2 µM (inactive); in the experiment with HT-29, 76.7 µM (inactive); in the experiment with MDA-MB-435, 30.5 µM (inactive); with COLO 205, 39.5 µM (inactive); with HCT-15, 29.7 µM; in the experiment with HCT-116, 38.3 µM (inactive). The GI50 with MOLT-4 is 23.9 µM (inactive); with HCC 2998 it was 32.1 µM (inactive); in the experiment with SK-MEL-5 it was 25.6 µM (inactive); with HOP-92, 28.6 µM (inactive); with SW-620 it was 82 µM (inactive); in the experiment on SN12C, 36.5 µM (inactive). In addition, the GI50 was 38.2 µM (inactive) in the experiment on 786-0; > 100 µM (inactive) with TK-10; 51.8 µM (inactive) in the experiment with SNB-19; 50.5 µM (inactive) in the experiment with NCI-H23; 33.7 µM (inactive) in the experiment on LOX IMVI.
